Values of other authors, collected in patent US20230079706A1, “Solid Cleansing Compositions and Methods for the Same” (Colgate-Palmolive Company, priority 2021, published 2023).

System: melanin
Details: personal care compositions with lower than 2.0 wt % Kojic acid

In the case of `O=c1cc(CO)occ1O` [Kojic acid, 5-Hydroxy-2-(hydroxymethyl)-4H-pyran-4-one], the “Efficacy in the reduction of melanin and/or the inhibition of melanin production” value is given as “poor to no efficacy”.
